Converted amounts (≈) assume the structure as drawn.
Legend:
[1] = Lipophilicity, logP of compound by HPLC analysis; format: physicochemical
CYP1A2 = assay: Induction of CYP1A2 mRNA expression in human hepatocytes up to 30 uM relative to positive control; format: ADME, cell-based, Hepatocyte; conditions: read-out: Activity
CYP2B6 = assay: Induction of CYP2B6 mRNA expression in human hepatocytes up to 30 uM relative to positive control; format: ADME, cell-based, Hepatocyte; conditions: read-out: Activity
CYP3A4 = assay: Induction of CYP3A4 mRNA expression in human hepatocytes up to 30 uM relative to positive control; format: ADME, cell-based, Hepatocyte; conditions: read-out: Activity
[2] = Terminal half life in human at 8 to 24 mg; format: ADME; conditions: dose 8-24 mg, read-out: beta t1/2 (converted)
[3] = Drug excretion in female Sprague-Dawley rat urine/feces assessed as drug recovery at […], po administered as single dose using [14C]-EC5026 measured through 168 hrs postdose; conditions: in vivo
[4] = Drug excretion in male Sprague-Dawley rat urine/feces assessed as drug recovery at 3 mg/kg, po administered as single dose using [14C]-EC5026 measured through 168 hrs postdose; conditions: in vivo
[5] = Solubility in 0.1M sodium phosphate buffer at pH 7.4; format: physicochemical

Structure (SMILES) | logP ([1]; read-out: logP) | Emax (CYP1A2) [%] | Emax (CYP2B6) [%] | Emax (CYP3A4) [%] | half-life [2] [h] | Drug recovery [3] [%] | Drug recovery [4] [%] | solubility [5] [µg/mL] | logP [1]
O=C(Nc1ccc(OC(F)(F)F)c(F)c1)NC1CCN(C(=O)C2CC2)CC1 | 4.2 | – | – | – | – | – | – | – | –
CC[C@H](C)C(=O)N1CCC(NC(=O)Nc2ccc(OC(F)(F)F)c(F)c2)CC1 | 6 | < 20 | < 20 | < 20 | 42 | 96.5 | 96.5 | – | –
CC[C@H](C)C(=O)N1CCC(CC(=O)Nc2ccc(OC(F)(F)F)c(F)c2)CC1 | – | – | – | – | – | – | – | 404.41 (≈ 1000 µM) | 3.2

— ChEMBL document CHEMBL4706685 (J Med Chem, 2021)
